Measured values from PubChem BioAssay AID256 (DTP/NCI, 2004).
Where “and” joins values, the source holds several entries; their conditions need not be identical. Equal entries are not always repeated. Inconclusive results and toxic doses are left out.

System: CD2F1 mice, L1210 leukemia ip, survival T/C
Test: NCI In Vivo Anticancer Drug Screen. Data for tumor model L1210 Leukemia (intraperitoneal) in CD2F1 (CDF1) mice
Settings: higher = longer survival
Method: The antitumor activity of compounds was measured in mice bearing transplantable tumors. Survival or tumor size were measured and the results are expressed as the measurement made in the treated group (T) divided by the measurement made in the vehicle treated control group (C). The tumor model used in this assay is L1210 Leukemia (intraperitoneal) in CD2F1 (CDF1) mice

**Q.** Which results are given for S=c1nc[nH]c2nc[nH]c12?
**A.** T/C (endpoint: mean survival time, dose: 8.0 mg/kg/injection, schedule: Q03HX024 (ip), vehicle: alkali diluted with water): 155 % of control; T/C (endpoint: mean survival time, dose: 9.38 mg/kg/injection, schedule: Q01DX009 (ip), vehicle: alkali diluted with saline): 119 % of control; T/C (endpoint: mean survival time, dose: 10.0 mg/kg/injection, schedule: Q01DX005 (ip), vehicle: alkali diluted with saline): 113 % of control; T/C (endpoint: mean survival time, dose: 10.0 mg/kg/injection, schedule: Q01DX005 (ip), vehicle: alkali diluted with water): 98 % of control; T/C (endpoint: mean survival time, dose: 16.0 mg/kg/injection, schedule: Q03HX024 (ip), vehicle: alkali diluted with water): 160 % of control; T/C (endpoint: mean survival time, dose: 18.8 mg/kg/injection, schedule: Q01DX009 (ip), vehicle: alkali diluted with saline): 113 % of control; T/C (endpoint: mean survival time, dose: 19.4 mg/kg/injection, schedule: Q04DX003 (ip), vehicle: alkali diluted with saline): 101 % of control; T/C (endpoint: mean survival time, dose: 20.0 mg/kg/injection, schedule: Q01DX007 (ip), vehicle: saline): 116 % of control; T/C (endpoint: mean survival time, dose: 20.0 mg/kg/injection, schedule: Q01DX009 (ip), vehicle: alkali diluted with water): 114 % of control; T/C (endpoint: mean survival time, dose: 20.0 mg/kg/injection, schedule: Q01DX009 (ip), vehicle: other): 121 % of control; T/C (endpoint: mean survival time, dose: 20.0 mg/kg/injection, schedule: Q01DX009 (ip), vehicle: saline): 120 % of control; T/C (endpoint: mean survival time, dose: 20.0 mg/kg/injection, schedule: Q04DX002 (ip), vehicle: saline): 120 % of control; T/C (endpoint: mean survival time, dose: 28.13 mg/kg/injection, schedule: Q04DX003 (ip), vehicle: alkali diluted with saline): 95 % of control; T/C (endpoint: mean survival time, dose: 30.0 mg/kg/injection, schedule: Q## X006 (ip), vehicle: saline): 101 % of control; T/C (endpoint: mean survival time, dose: 37.5 mg/kg/injection, schedule: Q01DX009 (ip), vehicle: alkali diluted with saline): 122 % of control; T/C (endpoint: mean survival time, dose: 40.0 mg/kg/injection, schedule: Q01DX005 (ip), vehicle: saline): 150 % of control; T/C (endpoint: mean survival time, dose: 40.0 mg/kg/injection, schedule: Q01DX005 (ip), vehicle: sodium bicarbonate): 116 % of control; T/C (endpoint: mean survival time, dose: 40.0 mg/kg/injection, schedule: Q01DX009 (ip), vehicle: other): 166 % of control and 167 % of control; T/C (endpoint: mean survival time, dose: 40.0 mg/kg/injection, schedule: Q03DX003 (ip), vehicle: saline): 113 % of control; T/C (endpoint: mean survival time, dose: 40.0 mg/kg/injection, schedule: Q04DX003 (ip), vehicle: saline): 116 % of control; T/C (endpoint: mean survival time, dose: 60.0 mg/kg/injection, schedule: Q## X009 (ip), vehicle: saline): 122 % of control; T/C (endpoint: mean survival time, dose: 66.0 mg/kg/injection, schedule: Q04DX003 (ip), vehicle: saline): 163 % of control; T/C (endpoint: mean survival time, dose: 75.0 mg/kg/injection, schedule: Q01DX009 (ip), vehicle: alkali diluted with saline): 156 % of control and 170 % of control; T/C (endpoint: mean survival time, dose: 80.0 mg/kg/injection, schedule: Q01DX001 (ip), vehicle: alkali diluted with water): 120 % of control; T/C (endpoint: mean survival time, dose: 80.0 mg/kg/injection, schedule: Q01DX005 (ip), vehicle: saline with Tween-80): 168 % of control; T/C (endpoint: mean survival time, dose: 80.0 mg/kg/injection, schedule: Q01DX005 (ip), vehicle: saline): 170 % of control and 172 % of control; T/C (endpoint: mean survival time, dose: 80.0 mg/kg/injection, schedule: Q01DX005 (ip), vehicle: sodium bicarbonate): 157 % of control; T/C (endpoint: mean survival time, dose: 80.0 mg/kg/injection, schedule: Q01DX007 (ip), vehicle: saline): 158 % of control; T/C (endpoint: mean survival time, dose: 80.0 mg/kg/injection, schedule: Q01DX009 (ip), vehicle: alkali diluted with saline): 150 % of control; T/C (endpoint: mean survival time, dose: 80.0 mg/kg/injection, schedule: Q01DX009 (ip), vehicle: alkali diluted with water): 150 % of control and 158 % of control; T/C (endpoint: mean survival time, dose: 80.0 mg/kg/injection, schedule: Q01DX009 (ip), vehicle: other): 156 % of control; T/C (endpoint: mean survival time, dose: 80.0 mg/kg/injection, schedule: Q01DX009 (ip), vehicle: saline): 156 % of control; T/C (endpoint: mean survival time, dose: 80.0 mg/kg/injection, schedule: Q04DX002 (ip), vehicle: saline): 150 % of control; T/C (endpoint: mean survival time, dose: 90.0 mg/kg/injection, schedule: Q## X002 (ip), vehicle: saline): 153 % of control; T/C (endpoint: mean survival time, dose: 125.0 mg/kg/injection, schedule: Q01DX001 (ip), vehicle: alkali diluted with saline): 120 % of control; T/C (endpoint: mean survival time, dose: 150.0 mg/kg/injection, schedule: Q01DX009 (ip), vehicle: alkali diluted with saline): 113 % of control and 95 % of control; T/C (endpoint: mean survival time, dose: 150.0 mg/kg/injection, schedule: Q04DX003 (ip), vehicle: alkali diluted with saline): 155 % of control; T/C (endpoint: mean survival time, dose: 160.0 mg/kg/injection, schedule: Q01DX001 (ip), vehicle: alkali diluted with water): 152 % of control; T/C (endpoint: mean survival time, dose: 160.0 mg/kg/injection, schedule: Q01DX005 (ip), vehicle: saline with Tween-80): 175 % of control; T/C (endpoint: mean survival time, dose: 160.0 mg/kg/injection, schedule: Q01DX005 (ip), vehicle: saline): 171 % of control; T/C (endpoint: mean survival time, dose: 160.0 mg/kg/injection, schedule: Q01DX009 (ip), vehicle: alkali diluted with saline): 101 % of control; T/C (endpoint: mean survival time, dose: 160.0 mg/kg/injection, schedule: Q01DX009 (ip), vehicle: alkali diluted with water): 114 % of control and 88 % of control; T/C (endpoint: mean survival time, dose: 160.0 mg/kg/injection, schedule: Q01DX009 (ip), vehicle: other): 87 % of control; T/C (endpoint: mean survival time, dose: 165.0 mg/kg/injection, schedule: Q01DX001 (ip), vehicle: alkali diluted with saline): 122 % of control; T/C (endpoint: mean survival time, dose: 180.0 mg/kg/injection, schedule: Q## X002 (ip), vehicle: saline): 164 % of control; T/C (endpoint: mean survival time, dose: 180.0 mg/kg/injection, schedule: Q## X009 (ip), vehicle: saline): 154 % of control; T/C (endpoint: mean survival time, dose: 270.0 mg/kg/injection, schedule: Q## X006 (ip), vehicle: saline): 150 % of control; T/C (endpoint: mean survival time, dose: 270.0 mg/kg/injection, schedule: Q## X009 (ip), vehicle: saline): 153 % of control; T/C (endpoint: median survival time, dose: 15.6 mg/kg/injection, schedule: Q01DX009 (ip), vehicle: alkali diluted with saline): 116 % of control; T/C (endpoint: median survival time, dose: 18.0 mg/kg/injection, schedule: Q01DX009 (ip), vehicle: alkali diluted with saline): 118 % of control; T/C (endpoint: median survival time, dose: 20.0 mg/kg/injection, schedule: Q01DX005 (ip), vehicle: water): 187 % of control; T/C (endpoint: median survival time, dose: 25.0 mg/kg/injection, schedule: Q01DX009 (ip), vehicle: Klucel (hydroxypropylcellulose) (HPC)): 182 % of control; T/C (endpoint: median survival time, dose: 25.0 mg/kg/injection, schedule: Q01DX009 (ip), vehicle: alkali diluted with water): 122 % of control; T/C (endpoint: median survival time, dose: 25.9 mg/kg/injection, schedule: Q01DX009 (ip), vehicle: alkali diluted with saline): 124 % of control; T/C (endpoint: median survival time, dose: 26.0 mg/kg/injection, schedule: Q01DX009 (ip), vehicle: Klucel (hydroxypropylcellulose) (HPC)): 170 % of control; T/C (endpoint: median survival time, dose: 30.0 mg/kg/injection, schedule: Q01DX009 (ip), vehicle: alkali diluted with saline): 121 % of control; T/C (endpoint: median survival time, dose: 37.5 mg/kg/injection, schedule: Q04DX003 (ip), vehicle: Klucel (hydroxypropylcellulose) (HPC)): 154 % of control; T/C (endpoint: median survival time, dose: 40.0 mg/kg/injection, schedule: Q01DX005 (ip), vehicle: water): 310 % of control; T/C (endpoint: median survival time, dose: 40.0 mg/kg/injection, schedule: Q01DX009 (ip), vehicle: Klucel (hydroxypropylcellulose) (HPC)): 159 % of control; T/C (endpoint: median survival time, dose: 40.0 mg/kg/injection, schedule: Q01DX009 (ip), vehicle: alkali diluted with saline): 123 % of control; T/C (endpoint: median survival time, dose: 50.0 mg/kg/injection, schedule: Q01DX009 (ip), vehicle: Klucel (hydroxypropylcellulose) (HPC)): 259 % of control; T/C (endpoint: median survival time, dose: 50.0 mg/kg/injection, schedule: Q01DX009 (ip), vehicle: alkali diluted with water): 164 % of control; T/C (endpoint: median survival time, dose: 50.0 mg/kg/injection, schedule: Q04DX003 (ip), vehicle: alkali diluted with saline): 101 % of control; T/C (endpoint: median survival time, dose: 60.0 mg/kg/injection, schedule: Q01DX009 (ip), vehicle: alkali diluted with saline): 173 % of control; T/C (endpoint: median survival time, dose: 60.0 mg/kg/injection, schedule: Q01DX009 (ip), vehicle: water): 159 % of control; T/C (endpoint: median survival time, dose: 70.0 mg/kg/injection, schedule: Q01DX009 (ip), vehicle: alkali diluted with saline): 151 % of control and 158 % of control; T/C (endpoint: median survival time, dose: 72.0 mg/kg/injection, schedule: Q01DX009 (ip), vehicle: alkali diluted with saline): 150 % of control; T/C (endpoint: median survival time, dose: 75.0 mg/kg/injection, schedule: Q04DX003 (ip), vehicle: Klucel (hydroxypropylcellulose) (HPC)): 176 % of control; T/C (endpoint: median survival time, dose: 78.0 mg/kg/injection, schedule: Q04DX003 (ip), vehicle: other): 120 % of control; T/C (endpoint: median survival time, dose: 80.0 mg/kg/injection, schedule: Q01DX005 (ip), vehicle: Klucel (hydroxypropylcellulose) (HPC)): 158 % of control; T/C (endpoint: median survival time, dose: 80.0 mg/kg/injection, schedule: Q01DX005 (ip), vehicle: water): 164 % of control; T/C (endpoint: median survival time, dose: 80.0 mg/kg/injection, schedule: Q01DX009 (ip), vehicle: water): 158 % of control; T/C (endpoint: median survival time, dose: 83.3 mg/kg/injection, schedule: Q01DX009 (ip), vehicle: alkali diluted with saline): 160 % of control; T/C (endpoint: median survival time, dose: 100.0 mg/kg/injection, schedule: Q01DX001 (ip), vehicle: alkali diluted with saline): 117 % of control and 122 % of control; T/C (endpoint: median survival time, dose: 100.0 mg/kg/injection, schedule: Q01DX001 (ip), vehicle: alkali diluted with water): 157 % of control; T/C (endpoint: median survival time, dose: 100.0 mg/kg/injection, schedule: Q01DX005 (ip), vehicle: alkali diluted with water): 172 % of control; T/C (endpoint: median survival time, dose: 100.0 mg/kg/injection, schedule: Q01DX009 (ip), vehicle: Klucel (hydroxypropylcellulose) (HPC)): 211 % of control; T/C (endpoint: median survival time, dose: 100.0 mg/kg/injection, schedule: Q04DX003 (ip), vehicle: alkali diluted with saline): 116 % of control; T/C (endpoint: median survival time, dose: 120.0 mg/kg/injection, schedule: Q01DX009 (ip), vehicle: alkali diluted with saline): 154 % of control; T/C (endpoint: median survival time, dose: 150.0 mg/kg/injection, schedule: Q04DX003 (ip), vehicle: Klucel (hydroxypropylcellulose) (HPC)): 178 % of control; T/C (endpoint: median survival time, dose: 160.0 mg/kg/injection, schedule: Q01DX005 (ip), vehicle: Klucel (hydroxypropylcellulose) (HPC)): 164 % of control; T/C (endpoint: median survival time, dose: 200.0 mg/kg/injection, schedule: Q01DX005 (ip), vehicle: alkali diluted with water): 89 % of control; T/C (endpoint: median survival time, dose: 200.0 mg/kg/injection, schedule: Q01DX009 (ip), vehicle: Klucel (hydroxypropylcellulose) (HPC)): 154 % of control; T/C (endpoint: median survival time, dose: 200.0 mg/kg/injection, schedule: Q01DX009 (ip), vehicle: alkali diluted with water): 88 % of control; T/C (endpoint: median survival time, dose: 200.0 mg/kg/injection, schedule: Q04DX003 (ip), vehicle: alkali diluted with saline): 155 % of control; T/C (endpoint: median survival time, dose: 200.0 mg/kg/injection, schedule: Q04DX003 (ip), vehicle: other): 475 % of control; T/C (endpoint: median survival time, dose: 400.0 mg/kg/injection, schedule: Q01DX009 (ip), vehicle: Klucel (hydroxypropylcellulose) (HPC)): 152 % of control; T/C (endpoint: median survival time, dose: 600.0 mg/kg/injection, schedule: Q04DX003 (ip), vehicle: Klucel (hydroxypropylcellulose) (HPC)): 194 % of control
